Consider five molecules from patent publication EP0003794B1, “Testosterone esters, process for their preparation and pharmaceutical compositions containing them” (priority 1978, dated 1979).

The nature of data set [1]: Testosterone plasma concentration (radioimmunoassay) and bioavailability after oral application in peanut oil, female dogs; i.m. testosterone as the reference. It counts as in vivo, Hunden. How it is done: Es wurde der zeitliche Verlauf der Testosteronkonzentration im Plasma von weiblichen Hunden von ca. 10 kg Gewicht nach oraler Applikation von 50 mg Testosteron-0-hexadecanoylglykolat (= 25 mg Testosteron) und von 40 mg Testosteronundecylat (= 25 mg Testosteron) im Vergleich zur […] Applikation von 25 mg Testosteron gemessen. Die Testosteronbestimmung im Plasma erfolgte mittels Radioimmunoassay. Zur Applikation wurden die geprüften Substanzen in Erdnußöl gelöst.
Die Bioverfügbarkeit wurde berechnet als Quotient der Flächen unter der Testosteronplasmaspiegelkurve (0-8 Stunden) nach oraler Applikation der geprüften Substanzen und der Fläche unter der Testosteronplasinaspiegelkurve nach intramuskulärer Applikation von Testosteron.

Data set [2] is classed as in vivo, Paviane. To be noted: 50 mg i.m. in 1 ml Rizinusöl/Benzylbenzoat (6:4), female baboons. How it is done: Die gleichmäßige, anhaltende Bereitstellung von Testosteron aus den erfindungsgemäßen Estern kann durch Bestimmung der Testosteronkonzentration im Plasma mittels Radioimmunoassay nachgewiesen werden.
Zu diesem Zweck erhielten zwei weibliche Paviane je 50 mg Testosteron-O-hexadecanoylglykolat in 1 ml Rizinusöl/Benzylbenzoat (6:4) intramuskular. Die Testosteron-Plasmaspiegel lagen zwischen dem 2. und 40. Tag im Bereich zwischen 15 und 25 ng/ml Plasma.

For data set [3] the following is noted: Recent Progress in Hormone Research, Volume XIII, 389-396, Fig. 1 and Fig. 4; cited from earlier work.

Consider `C[C@]12CC[C@H]3[C@@H](CCC4=CC(=O)CC[C@@]43C)[C@@H]1CC[C@@H]2O` [Testosteron (T), Testosteron], for which the AUC at 8 h in data set [1] (dog, plasma, oral, in Erdnußöl, dose ≙ 25 mg Testosteron, female dogs ca. 10 kg, testosterone by radioimmunoassay, read-out: Fläche unter Plasma-spiegel (0 – 8 h)) amounted to 10.6 ng·h/mL. Also, the “Bioverfügbarkeit bezogen auf i.m. Applikation” value in data set [1] (in vivo) is 1,29%.

`CCCCCCCCCCCCCCCC(=O)OCC(=O)O[C@H]1CC[C@H]2[C@@H]3CCC4=CC(=O)CC[C@]4(C)[C@H]3CC[C@]12C` [Testosteron-O-hexadecanoylglykolat]: the “Freisetzung des Testosterons aus dem Depot” value in data set [2] was “fast vollständig freigesetzt”.

In the case of `CCCCCCCCCC(=O)CC(=O)O[C@H]1CC[C@H]2[C@@H]3CCC4=CC(=O)CC[C@]4(C)[C@H]3CC[C@]12C` [Testosteroncaprinoylacetat], the “Wirkung (Verlauf) im Vergleich zu Testosteronönanthat” value (“Wirkung” for short) in data set [3] is “über 6 Wochen etwas gleichmäßigere aber insgesamt geringere Wirkung”.

For `CCCCCCCCCCC(=O)O[C@H]1CC[C@H]2[C@@H]3CCC4=CC(=O)CC[C@]4(C)[C@H]3CC[C@]12C` [Testosteronundecylat], the “Wirkung” value in data set [3] is “etwas gleichmäßigere Wirkung als Testosteronönanthat”.

As for `CCCCCCC(=O)O[C@H]1CC[C@H]2[C@@H]3CCC4=CC(=O)CC[C@]4(C)[C@H]3CC[C@]12C` [Testosteronönanthat], the “Wirkung” value in data set [3] is on record as “besonders hohe initiale Wirkung zeigt, die relativ rasch abfällt”.
